Assay results published in patent publication US6686352B2, “Substituted imidazo [1,5-a] pyrimido [5,4-d] [1] benzazepine derivatives” (Hoffmann-La Roche Inc., priority 2001, dated 2004).

tested on: not given; assay: not given; settings: not given

| Molecule | melting point [°C] |
| --- | --- |
| CCOC(=O)c1ncnc2c1Cc1cnc(C(C)(C)C)n1-c1cc(F)ccc1-2 | 233 |
| CCOC(=O)c1ncnc2c1Cc1cnc(Cc3ccc(OC)cc3)n1-c1cc(F)ccc1-2 | 185 |
| CCOC(=O)c1ncnc2c1Cc1cnc(Cc3c[nH]c4ccccc34)n1-c1cc(F)ccc1-2 | 230 |
| CCOC(=O)c1ncnc2c1Cc1cnc(C(C)C)n1-c1cc(Cl)ccc1-2 | 192 |
| CCOC(=O)c1ncnc2c1Cc1cnc(C3CC3)n1-c1cc(Cl)ccc1-2 | 230 |
| CCOC(=O)c1ncnc2c1Cc1cnc(C(C)(C)C)n1-c1cc(Cl)ccc1-2 | 180 |
| CCOC(=O)c1ncnc2c1Cc1cnc(Cc3ccc(OC)cc3)n1-c1cc(Cl)ccc1-2 | 192 |
| CCOC(=O)c1ncnc2c1Cc1cnc(Cc3c[nH]c4ccccc34)n1-c1cc(Cl)ccc1-2 | 120 |
| CCOC(=O)c1ncnc2c1Cc1cncn1-c1cc(Br)ccc1-2 | 210 |
| CCOC(=O)c1ncnc2c1Cc1cnc(C3CC3)n1-c1cc(Br)ccc1-2 | 230 |
| CCOC(=O)c1ncnc2c1Cc1cnc(Cc3ccc(OC)cc3)n1-c1cc(Br)ccc1-2 | 180 |
| CCOC(=O)c1ncnc2c1Cc1cnc(C)n1-c1cc(C)ccc1-2 | 200 |
| CCCc1ncc2n1-c1cc(C)ccc1-c1ncnc(C(=O)OCC)c1C2 | 250 |
| CCOC(=O)c1ncnc2c1Cc1cnc(C3CC3)n1-c1cc(C)ccc1-2 | 250 |
| CCOC(=O)c1ncnc2c1Cc1cnc(-c3ccccc3)n1-c1ccccc1-2 | 244 to 246 |
| Cc1ncc2n1-c1ccccc1-c1ncnc(C(=O)O)c1C2 | 285 to 287 |
| Cc1ncc2n1-c1ccccc1-c1ncnc(-c3nc(C4CC4)no3)c1C2 | 216 to 218 |
| CCOC(=O)c1ncnc2c1Cc1cnc(C)n1-c1cc(C)c(C)cc1-2 | 210 |
| CCCc1ncc2n1-c1cc(C)c(C)cc1-c1ncnc(C(=O)OCC)c1C2 | 213 |
| CCOC(=O)c1ncnc2c1Cc1cnc(Cc3ccc(OC)cc3)n1-c1cc(C)c(C)cc1-2 | 150 |
| CCOC(=O)c1ncnc2c1Cc1cnc(Cc3c[nH]c4ccccc34)n1-c1cc(C)c(C)cc1-2 | 135 |
| CCOC(=O)c1ncnc2c1Cc1cnc(C(C)(C)C)n1-c1ccccc1-2 | 250 |
| CCOC(=O)c1ncnc2c1Cc1cnc(Cc3c[nH]c4ccccc34)n1-c1ccccc1-2 | 120 |

target: T1, GABA A receptor α5β3γ2 (α5 subunit) (Rattus norvegicus, UniProt P18508+P19969); assay: [3H]flumazenil ([3H]Ro 15-1788) competition binding assay, membranes of SF9 cells expressing rat GABA A receptors; settings: displacement of [3H]Ro 15-1788 (0.5 nM for α5), 1 hour at 4° C., means of two determinations; especially preferred compounds
T1 construct: expressed in transfected cells; host or cells: SF9 insect cells (membrane preparation)
Procedure: The affinity of compounds at GABA A receptor subtypes was measured by competition for [^3H]flumazenil ([^3H]Ro 15-1788) (85 Ci/mmol; Amersham) binding to SF9 cells expressing rat receptors of composition α1β3γ2, α2β3γ2, α3β3γ2 and α5β3γ2.
Cell pellets were suspended in Krebs-tris buffer (4.8 mM KCl, 1.2 mM CaCl2, 1.2 mM MgCl2, 120 mM NaCl, 15 mM Tris; pH 7.5; binding assay buffer), homogenized by polytron for ca. 15 sec on ice and centrifuged in UZ for 30 min at 4° C. (100000 g; rotor: TFT 4594=[…]). The cell pellets were re-suspended in Krebs-tris buffer and homogenized by polytron for ca. 15 sec on ice. Aliquots of 1 ml were prepared, protein was measured (Bradford method) and the resulting membrane aliquots were stored at −70° C.
Radioligand binding assays were carried out in a volume of 200 μL (96-well plates) which contained 100 μL of cells, [^3H]Ro 15-1788 at a concentration of 1 nM for (α1, α2, α3 subunits and 0.5 nM for α5 subunits and the test compound in the range of 10^−10−3×10^−6 M. Nonspecific binding was defined by 10^−5 M diazepam and typically represented less than 5% of the total binding. Assays were incubated to equilibrium for 1 hour at 4° C. and harvested onto GF/C uni-filters (Packard) by filtration using a Packard harvester and washing with ice-cold wash buffer (50 mM Tris; pH 7.5). After drying, filter-retained radioactivity was detected by liquid scintillation counting. Ki values were calculated using Excel-Fit (Microsoft) and are the means of two determinations.

| Molecule | Ki [nM] |
| --- | --- |
| 3-Bromo-6-methyl-9H-imidazo[1,5-a]pyrimido[5,4-d][1]benzazepine-10-carboxylic Acid Ethyl Ester [Example 22] | 12.5 |
| 3-Fluoro-6-(1-methylethyl)-9H-imidazo[1,5-a]pyrimido[5,4-d][1]benzazepine-10-carboxylic Acid Ethyl Ester [Example 10] | 11.2 |
| 3-Fluoro-6-methyl-9H-imidazo[1,5-a]pyrimido[5,4-d][1]benzazepine-10-carboxylic Acid Ethyl Ester [Example 8] | 4.6 |
| 3-Fluoro-6-propyl-9H-imidazo[1,5-a]pyrimido[5,4-d][1]benzazepine-10-carboxylic Acid Ethyl Ester [Example 9] | 8 |
| 6-(1-Methylethyl)-9H-imidazo [1,5-a]pyrimido[5,4-d][1]benzazepine-10-carboxylic Acid Ethyl Ester [Example 3] | 8.9 |
| 6-Cyclopropyl-3-fluoro-9H-imidazo[1,5-a]pyrimido[5,4-d][1]benzazepine-10-carboxylic Acid Ethyl Ester [Example 11] | 7.8 |
| 6-Cyclopropyl-9H-imidazo[1,5-a]pyrimido[5,4-d][1]benzazepine-10-carboxylic Acid Ethyl Ester [Example 4] | 7.6 |
| 6-Methyl-9H-imidazo[1,5-a]pyrimido[5,4-d][1]benzazepine-10-carboxylic Acid Ethyl Ester [Example 29] | 3.8 |
| 6-Propyl-9H-imidazo[1,5-a]pyrimido[5,4-d][1]benzazepine-10-carboxylic Acid Ethyl Ester [Example 2] | 5.5 |
| 6-[(4-Methoxyphenyl)Methyl]-9H-imidazo[1,5-a]pyrimido[5,4-d][1]benzazepine-10-carboxylic Acid Ethyl Ester [Example 6] | 13.8 |
| 9H-Imidazo[1,5-a]pyrimido[5,4-d][1]benzazepine-10-carboxylic Acid Ethyl Ester [Example 1] | 3.7 |
